Eight molecules from US7166472B2, “Method for the identification of agents that inhibit or promote cataracts and uses thereof” (The General Hospital Corporation, priority 2000, dated 2007) can be followed below.

The nature of test [1]: Hydrogen peroxide assay (DCF fluorometric). In kind it is biochemical. As for the experimental part: Hydrogen Peroxide Assay—The fluorometric assay for hydrogen peroxide is based on the dichlorofluorescein diacetate (DCF) method (Molecular Probes, Eugene, Oreg.). The DCF solution (5 mM) in 100% ethanol was deacetylated in the presence of 0.01 M NaOH for 30 minutes and neutralized. Horseradish peroxidase (200 U/ml) was then added and the DCF concentration adjusted to 200 μM in PBS. The reaction solutions were carried out in PBS, pH 7.4, in a 96-well format plate (total volume=300 μL/well) and contained a test compound (KYN, 3-HK, 3-HAA, ANA, or ASC, each at 10 μM), deacetylated DCF (20 μM), and Cu(II)-glycine (1 μM) as indicated, incubated at 37° C. for 60 minutes. […] Abolition of the reading by co-incubation with catalase (1000 U/ml) was used for establishing H2O2 specificity. The fluorescent readings were recorded by a Packard FLURORCOUNT™ fluorescent plate reader with a 485 nm excitation filter and 530 nm emission filter. Concentrations were determined by comparison to a standard curve using reagent grade hydrogen peroxide in CHELEX™ chelating ion exchanae resin-treated PBS buffer, pH 7.4.
Reactions were conducted in the absence of added Cu(II), in the presence of added glycine-complexed Cu(II) (1 μM), in the presence of added glycine-complexed Cu(II) (1 μM) and catalase (1000 U/ml), or with added glycine-complexed Cu(II) (1 μM) and the copper chelator triethylenetetramine (TETA, 200 μM).

Test [2] is described as follows: Cyclic voltammetry of kynurenine metabolites with Cu(II). In kind it is physicochemical. The note with it: metabolite 100 μM, cupric chloride 25 μM, PBS pH 7.4. As for the experimental part: Cyclic Voltammetry—Cyclic voltammetry was performed at room temperature (22±2° C.) on ambient solutions using an EG&G PAR potentiostat, Model 273. The potentiostat was operated in Ramp Mode, generating a potential staircase waveform with a 0.25 mV step height. The potential window of +0.15 to −0.4V, in which Cu(I) is electroactive, but the metabolites are not, was scanned in both directions at a rate of 100 mV/sec. The current response was passed through a 5.3 Hz low pass filter. A minimum of three cycles were collected for each scan, ensuring the stability of the electrochemical response. The electrochemical cell consisted of an indium/tin oxide working electrode (Delta Technologies) with an active area of 0.32 cm^2, a platinum wire auxiliary electrode, and a Ag/AgCl (1 M KCl) reference electrode (Microelectrodes Inc.). Both the auxiliary and reference electrodes were positioned in the cell in close proximity to the working electrode. The working electrodes were pretreated with successive 10 minute sonications in Alconox (˜8 g/L), 95% ethanol, Milli-Q purified H2O (2×), and PBS (pH 7.4), followed by an overnight soak in PBS (pH 7.4). The ITO electrodes were subsequently “activated” immediately prior to use by successive cycling in PBS for three cycles in each of the following potential windows: +0.15 ? −0.4 V, +0.4 ? −0.4 V, and +1.0 ? −0.4 V. Cupric chloride (25 μM; Allied Chemical) was used as the Cu(II) source. Background voltammograms were obtained on each new electrode before testing the kynurenine pathway metabolites. PBS solutions of KYN, 3-HK, ANA, and 3-HAA (each at 100 μM) were separately scanned with and without added Cu(II) (25 μM). Each experiment also included a scan of Cu(II) (25 μM) in PBS without added test compound. All solutions were tested within minutes of being prepared. Each test was repeated to ensure the reproducibility of the results.
The voltammograms in FIGS. 3A–3D compare 3-HK and 3-HAA to their corresponding non-phenolic analogs, kynurenine (KYN) and anthranilic acid (ANA), in aqueous solutions of Cu(II) at pH 7.4. […] At potentials above +0.15 V, the metabolites undergo direct irreversible oxidation, a reaction that is not considered further here. Cyclic voltammetry of Cu(II) in PBS yielded a current response at ≈−100 mV due to reduction of the metal ion (scan “b” in each panel).

A short description of test [3]: Superoxide assay (dihydroethidium fluorometric). In kind it is biochemical. The method, then:
Superoxide Assay—The fluorometric assay for superoxide is based upon the dihydroethidium (DHE, HYDROETHDNE™) method (Molecular Probes, Eugene, Oreg.) and used according to the manufacturer's instructions. DHE (1 mM) was freshly prepared in 100% argon-sparged DMSO. The reaction solutions were carried out in PBS, pH 7.4, under ambient gas conditions, in 96-well format plates and contained a test compound (KYN, 3-HK, 3-HAA, and ANA, each at 10 μM), DHE (100 μM), +/− Cu(II)-glycine (1 μM) and incubated at 37EC for 60 minutes. […] Abolition of the reading by co-incubation with superoxide dismutase (1000 U/ml) was used for establishing superoxide specificity. The fluorescent readings were recorded by a Packard FLUOROCOUNT™ fluorescent plate reader with a 510 nm excitation filter and 590 nm emission filter. Potassium superoxide dissolved in degassed DMSO was used as a positive control.

In test [4] the target is T1, recombinant human αB-crystallin (Homo sapiens, UniProt P02511).
T1 construct: gift of Dr. J. Liang, Brigham and Women's Hospital
T1 sequence (P02511 1-175): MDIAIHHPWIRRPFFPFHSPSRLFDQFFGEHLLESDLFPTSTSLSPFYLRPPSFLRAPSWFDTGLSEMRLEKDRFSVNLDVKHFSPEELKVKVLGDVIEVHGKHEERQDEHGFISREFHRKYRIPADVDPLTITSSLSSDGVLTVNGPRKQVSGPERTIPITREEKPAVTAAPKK
In words: Recombinant human αB-crystallin cross-linking (SDS-PAGE, silver stain). In kind it is biochemical. Conditions: data not shown. The method, then: Various solutions containing 3-HK (10 μM) or other kynurenine pathway metabolites (10 μM), Cu(II)-glycine (10 μM), Fe(III)-citrate (10 μM), and triethylenetetramine (TETA, 200 μM), were added in combinations as indicated. […] After incubation, aliquots of the total lens protein solutions were mixed with sample buffer containing 4% SDS and 5% β-mercaptoethanol, heated to 95° C. for 5 minutes, and loaded at 1 μg/lane on a 10–20% Tricine gel (Novex, San Diego, Calif.). […] For the experiments with recombinant αB-crystallin, aliquots of the protein solutions were mixed with sample running buffer containing NuPAGE sample buffer (Novex, San Diego, Calif.) and 10% β-mercaptoethanol, heated to 95° C. for 5 minutes, spun briefly, then loaded on a NuPAGE 4–12% Bis-Tris polyacrylamide gel at 375 ng/lane and electrophoresed with denaturing 3-(N-morpholino)propanesulfonic acid (MOPS)-SDS running buffer according to the manufacturer's recommendations.
To exclude the effects of other lens proteins on the observed findings in FIG. 5, these interactions with purified recombinant human αB-crystallin were examined.

A short description of test [5]: Metal reduction assay, Cu(II) to Cu(I) (BC/BCA indicator). The test is classed as biochemical. The note with it: chelator 250 μM. As for the experimental part:
Metal Reduction Assays—Assays were performed using a 96-well microtiter plate (Costar, Mass.). Test compounds from the kynurenine pathway (10 μM) or, as a positive control, ascorbic acid (ASC, 10 μM) were co-incubated with either Fe(III)-citrate (25 μM) and the Fe(II) indicator bathophenanthroline disulfonic acid (BP, 250 μM), or Cu(II)-glycine (25 μM) and the Cu(I) indicator bathocuproine disulfonic acid (BC) or bicinchoninic acid (BCA, 250 μM). Incubations were conducted in PBS, pH 7.4, at 37° C. in the dark for one hour. Absorbencies were then measured using a plate reader (SPECTRAmax Plus, Molecular Devices, CA) at the appropriate wavelengths: Fe(II)-BP complex at 535 nm (the known molar absorption coefficient, M535,=22140 M^−1 cm^−1), Cu(I)-BC complex at 483 nm, M483=12250 M^−1cm^−1), or Cu(I)-BCA complex at 562 nm, M562=7700 M^−1cm^−1). In control samples, absorbance from the metal ion and indicator in the absence of test compound and the absorbance of test compound in the presence of metal ions, but in the absence of indicator, were determined. The absorbencies from these controls were deducted from those obtained in the presence of the test compound, metal and indicator to yield the net absorbance (ΔA). Fe(II) or Cu(I) concentrations (μM) were calculated according to the formula: C(μM)=ΔA*10^6/Mλ.
The compounds comprising the kynurenine pathway (FIG. 1) were assayed for their ability to reduce […] and Cu(II) (FIG. 2A). […] Values represent the mean±SD for three independent measurements.

The nature of test [6]: Metal reduction capacity of tanned calf lens α-crystallin, Cu(II). Conditions: α-crystallin preparation 100 μg/ml, Cu(II)-glycine 25 μM, one hour 37° C. In kind it is biochemical. As for the experimental part: Studies of Tanned Calf Lens Crystalin in Assay of Crystallin Protein for Metal Reduction Capacity—α-Crystallin (10 mg/ml) from calf lens was modified by reaction with 3-HK (100 μM), 3-HAA (100 μM), or ASC (100 μM) in PBS, ph 7.4, for 12 hours at 4° C. in the dark. Control samples were incubated with ascorbic acid (100 μM) or without added reductant. The tanning incubation solutions also contained triethylenetetramine (TETA, 200 μM) to prevent cross-linking of the protein. After incubation, free reductant was removed from the tanned α-crystallin preparations by exhaustive dialysis at 4EC in the dark utilizing PBS, pH 7.4, containing CHELEX™ 100 chelating ion exchange resin (BioRad, Hercules, Calif.). The various modified α-crystallin preparations (100 μg/ml) were co-incubated with either Cu(II)-glycine glycine (25 μM) or Fe(III)-citrate (25 μM) for one hour at 37° C. and assayed for metal reduction capacity using the BC and BP spectrophotometric assay as detailed above. Incubated and dialyzed α-crystallin (100 μg/ml) and untreated α-crystallin (100 μg/ml) preparations were used for procedural control.
3-HK: α-crystallin reduced nearly 100% of the available Cu(II) and approximately 20% of the available Fe(III). 3-HAA: α-crystallin reduced approximately 65% of the available Cu(II).

Take `Nc1ccccc1C(=O)O` [ANA, anthranilic acid]: the hydrogen peroxide generated result in test [1] (ambient gas conditions, CHELEX-treated PBS, FIG. 4C) is “approx. 0.3 μM”. For the same molecule, the “Cu(II) reduction wave in presence of metabolite” value in test [2] is “largely unaffected”. Further, the “effect of Cu(II) on superoxide generation” value in test [3] (test compound 10 μM, Cu(II)-glycine 1 μM) is “did not promote”. Also, in test [3] (test compound 10 μM, ambient oxygen, dark, 60 minutes), the superoxide production result is “negligible”.
Take `C[S+](C)[O-]` [DMSO, dimethyl sulfoxide]: the “inhibition of αB-crystallin cross-linking by 3-HK or 3-HAA and Cu(II)” value (“inhibition” below) in test [4] is given as “did not inhibit”.
Regarding `O=C(O)CN(CCN(CC(=O)O)CC(=O)O)CCN(CC(=O)O)CC(=O)O` [DTPA, diethylenetriaminepentaacetic acid, reference compound], the “effect of chelator on metal reduction by 3-HK, 3-HAA and XA” value in test [5] is “abolished”.
Take `OC[C@@H](O)[C@@H](O)[C@H](O)[C@H](O)CO` [mannitol]: the “inhibition” value in test [4] is listed as “did not inhibit”.
Take `O=C(O)c1ccccc1O` [salicylate]: the “inhibition” value in test [4] is listed as “did not inhibit”.
Turning to catalase [reference compound], in test [4], the “inhibition” value is “neither catalase nor superoxide dismutase were capable of inhibiting”. For the same molecule, in test [1] (Cu(II) 1 μM, catalase 1000 U/ml or TETA 200 μM), the “effect on hydrogen peroxide generation by 3-HK or 3-HAA” value was “abolished”.
Consider “superoxide dismutase [reference compound]”, for which the “inhibition” value in test [4] is “neither catalase nor superoxide dismutase were capable of inhibiting”. In addition, in test [3] (superoxide dismutase 1000 U/ml), the “effect on superoxide production by 3-HAA” value is “removed”.

B1: 3-HAA: α-crystallin: calf lens α-crystallin modified (tanned) by reaction with 3-HAA, free metabolite removed by dialysis (protein, UniProt P02470 1-173; P02510 1-175, looked up)
Alpha-crystallin A chain: MDIAIQHPWFKRTLGPFYPSRLFDQFFGEGLFEYDLLPFLSSTISPYYRQSLFRTVLDSGISEVRSDRDKFVIFLDVKHFSPEDLTVKVQEDFVEIHGKHNERQDDHGYISREFHRRYRLPSNVDQSALSCSLSADGMLTFSGPKIPSGVDAGHSERAIPVSREEKPSSAPSS
Alpha-crystallin B chain: MDIAIHHPWIRRPFFPFHSPSRLFDQFFGEHLLESDLFPASTSLSPFYLRPPSFLRAPSWIDTGLSEMRLEKDRFSVNLDVKHFSPEELKVKVLGDVIEVHGKHEERQDEHGFISREFHRKYRIPADVDPLAITSSLSSDGVLTVNGPRKQASGPERTIPITREEKPAVTAAPKK
modifications: modified with 3-hydroxyanthranilic acid
notes: calf lens α-crystallin modified (tanned) by reaction with 3-HAA, free metabolite removed by dialysis
Turning to B1, the “reduction of available Cu(II)” value in test [6] is on record as “approximately 65%”.
